{
  "source": "patent EP4467141A1",
  "about": "“PYRAZOLO-QUINOLINES AS SELECTIVE INHIBITORS OF GENOTOXIC STRESS-INDUCED IKK/NF- KB PATHWAYS FOR CANCER THERAPY” (Max-Delbrück-Centrum für Molekulare Medizin in der …, priority 2023, dated 2024)",
  "experiment_in_all_cases": "Kinase panel study",
  "assay_type_in_all_cases": "biochemical",
  "conditions_in_all_cases": "read-out: Percentage of inhibition; for inhibition at 1 µM: 1000nM; for inhibition at 10 µM: 10000nM",
  "key": {"RPS6KA5 (MSK1)": {"molecular_target": "T1, RPS6KA5 (MSK1) (Homo sapiens, UniProt O75582)", "T1 construct": "purchased Thermo Fisher Scientific", "outline": "(§1)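 Readout is percentage kinase inhibition. Testing used 1 µM or 10 µM compound in externally run ZLyte/Adapta in vitro assays, and IC50 values were derived within the same panel.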"}, "RPS6KA1 (RSK1)": {"molecular_target": "T2, RPS6KA1 (RSK1) (Homo sapiens, UniProt Q15418)", "T2 construct": "purchased Thermo Fisher Scientific", "outline": "as §1"}, "HIPK1 (Myak)": {"molecular_target": "T3, HIPK1 (Myak) (Homo sapiens, UniProt Q86Z02)", "T3 construct": "purchased Thermo Fisher Scientific", "outline": "as §1"}, "DAPK3 (ZIPK)": {"molecular_target": "T4, DAPK3 (ZIPK) (Homo sapiens, UniProt O43293)", "T4 construct": "purchased Thermo Fisher Scientific", "outline": "as §1"}, "CDK5/p25": {"molecular_target": "T5, CDK5/p25 (Homo sapiens, UniProt Q00535)", "T5 construct": "purchased Thermo Fisher Scientific", "T5 sequence (Q00535 whole entry)": "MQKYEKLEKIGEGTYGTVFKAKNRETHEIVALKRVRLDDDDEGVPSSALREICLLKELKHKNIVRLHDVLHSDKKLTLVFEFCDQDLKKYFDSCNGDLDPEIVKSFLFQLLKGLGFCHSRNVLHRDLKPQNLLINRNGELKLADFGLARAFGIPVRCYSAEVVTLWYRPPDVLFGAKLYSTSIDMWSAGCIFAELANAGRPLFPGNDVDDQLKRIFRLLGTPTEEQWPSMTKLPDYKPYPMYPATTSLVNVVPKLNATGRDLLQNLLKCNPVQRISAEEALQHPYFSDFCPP", "T5 sequence (Q15078 99-307 partner limits assumed)": "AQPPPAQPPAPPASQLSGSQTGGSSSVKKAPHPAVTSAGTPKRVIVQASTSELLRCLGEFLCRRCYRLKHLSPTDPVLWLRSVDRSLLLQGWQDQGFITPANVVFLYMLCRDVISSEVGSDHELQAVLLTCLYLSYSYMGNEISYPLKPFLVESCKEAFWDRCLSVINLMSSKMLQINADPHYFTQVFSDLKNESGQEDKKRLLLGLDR", "outline": "as §1"}, "PRKCE (PKC epsilon)": {"molecular_target": "T6, PRKCE (PKC epsilon) (Homo sapiens, UniProt Q02156)", "T6 construct": "purchased Thermo Fisher Scientific", "T6 sequence (Q02156 1-737)": "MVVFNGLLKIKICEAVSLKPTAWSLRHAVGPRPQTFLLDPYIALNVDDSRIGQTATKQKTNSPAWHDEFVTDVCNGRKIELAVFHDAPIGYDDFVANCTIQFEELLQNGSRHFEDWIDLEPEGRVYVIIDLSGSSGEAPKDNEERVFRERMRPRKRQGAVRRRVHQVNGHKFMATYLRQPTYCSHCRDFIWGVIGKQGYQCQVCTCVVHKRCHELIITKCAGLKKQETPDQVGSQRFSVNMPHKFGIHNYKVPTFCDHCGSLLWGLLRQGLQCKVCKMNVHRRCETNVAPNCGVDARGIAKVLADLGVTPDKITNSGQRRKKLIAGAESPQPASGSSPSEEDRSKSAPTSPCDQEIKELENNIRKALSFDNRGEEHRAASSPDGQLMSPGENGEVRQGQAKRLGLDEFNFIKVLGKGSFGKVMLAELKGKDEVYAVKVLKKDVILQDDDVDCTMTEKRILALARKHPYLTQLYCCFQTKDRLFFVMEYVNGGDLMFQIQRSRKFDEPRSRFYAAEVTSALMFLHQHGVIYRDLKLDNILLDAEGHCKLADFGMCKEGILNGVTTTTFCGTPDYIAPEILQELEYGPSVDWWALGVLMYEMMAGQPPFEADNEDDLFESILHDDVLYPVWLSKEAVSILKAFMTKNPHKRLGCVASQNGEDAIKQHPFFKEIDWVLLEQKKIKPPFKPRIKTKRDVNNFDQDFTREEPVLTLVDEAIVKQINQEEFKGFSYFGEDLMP", "outline": "as §1"}, "[1]": {"molecular_target": "T7, EGFR (ErbB1) T790M C797S L858R (Homo sapiens, UniProt P00533, C797S/L858R/T790M)", "T7 construct": "purchased Thermo Fisher Scientific", "T7 sequence (P00533 25-1210 T790M/C797S/L858R)": "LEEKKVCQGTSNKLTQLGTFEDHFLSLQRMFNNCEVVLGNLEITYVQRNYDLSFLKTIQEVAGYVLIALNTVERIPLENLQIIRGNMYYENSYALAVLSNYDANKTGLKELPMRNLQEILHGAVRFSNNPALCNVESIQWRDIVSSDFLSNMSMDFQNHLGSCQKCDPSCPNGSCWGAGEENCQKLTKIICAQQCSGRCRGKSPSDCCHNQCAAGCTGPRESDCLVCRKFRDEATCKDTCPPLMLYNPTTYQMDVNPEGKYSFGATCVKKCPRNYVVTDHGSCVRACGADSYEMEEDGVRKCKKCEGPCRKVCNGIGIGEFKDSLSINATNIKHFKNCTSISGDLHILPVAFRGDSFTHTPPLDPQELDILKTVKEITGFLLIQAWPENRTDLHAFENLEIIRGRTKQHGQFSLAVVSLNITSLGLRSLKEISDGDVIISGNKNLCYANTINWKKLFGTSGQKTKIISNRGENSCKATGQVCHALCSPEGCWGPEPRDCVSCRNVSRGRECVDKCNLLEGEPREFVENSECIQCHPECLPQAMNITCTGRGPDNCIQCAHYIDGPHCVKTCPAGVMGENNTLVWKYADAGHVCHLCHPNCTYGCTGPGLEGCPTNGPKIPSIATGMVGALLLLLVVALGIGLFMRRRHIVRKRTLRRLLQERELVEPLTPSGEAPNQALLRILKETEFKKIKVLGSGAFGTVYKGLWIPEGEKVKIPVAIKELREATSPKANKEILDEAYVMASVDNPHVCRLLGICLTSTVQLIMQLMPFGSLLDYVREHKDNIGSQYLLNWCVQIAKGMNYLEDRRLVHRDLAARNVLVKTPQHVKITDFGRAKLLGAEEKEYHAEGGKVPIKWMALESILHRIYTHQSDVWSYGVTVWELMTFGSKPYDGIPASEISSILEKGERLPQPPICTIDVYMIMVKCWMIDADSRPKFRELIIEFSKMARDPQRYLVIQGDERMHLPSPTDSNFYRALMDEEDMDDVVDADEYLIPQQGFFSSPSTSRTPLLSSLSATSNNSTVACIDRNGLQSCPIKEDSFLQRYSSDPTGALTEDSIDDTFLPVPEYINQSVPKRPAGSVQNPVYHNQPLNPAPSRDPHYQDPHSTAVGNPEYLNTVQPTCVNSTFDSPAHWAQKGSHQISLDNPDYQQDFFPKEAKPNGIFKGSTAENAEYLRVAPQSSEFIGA", "outline": "as §1"}, "RET A883F": {"molecular_target": "T8, RET A883F (Homo sapiens, UniProt P07949, A883F)", "T8 construct": "purchased Thermo Fisher Scientific", "T8 sequence (P07949 29-1114 A883F)": "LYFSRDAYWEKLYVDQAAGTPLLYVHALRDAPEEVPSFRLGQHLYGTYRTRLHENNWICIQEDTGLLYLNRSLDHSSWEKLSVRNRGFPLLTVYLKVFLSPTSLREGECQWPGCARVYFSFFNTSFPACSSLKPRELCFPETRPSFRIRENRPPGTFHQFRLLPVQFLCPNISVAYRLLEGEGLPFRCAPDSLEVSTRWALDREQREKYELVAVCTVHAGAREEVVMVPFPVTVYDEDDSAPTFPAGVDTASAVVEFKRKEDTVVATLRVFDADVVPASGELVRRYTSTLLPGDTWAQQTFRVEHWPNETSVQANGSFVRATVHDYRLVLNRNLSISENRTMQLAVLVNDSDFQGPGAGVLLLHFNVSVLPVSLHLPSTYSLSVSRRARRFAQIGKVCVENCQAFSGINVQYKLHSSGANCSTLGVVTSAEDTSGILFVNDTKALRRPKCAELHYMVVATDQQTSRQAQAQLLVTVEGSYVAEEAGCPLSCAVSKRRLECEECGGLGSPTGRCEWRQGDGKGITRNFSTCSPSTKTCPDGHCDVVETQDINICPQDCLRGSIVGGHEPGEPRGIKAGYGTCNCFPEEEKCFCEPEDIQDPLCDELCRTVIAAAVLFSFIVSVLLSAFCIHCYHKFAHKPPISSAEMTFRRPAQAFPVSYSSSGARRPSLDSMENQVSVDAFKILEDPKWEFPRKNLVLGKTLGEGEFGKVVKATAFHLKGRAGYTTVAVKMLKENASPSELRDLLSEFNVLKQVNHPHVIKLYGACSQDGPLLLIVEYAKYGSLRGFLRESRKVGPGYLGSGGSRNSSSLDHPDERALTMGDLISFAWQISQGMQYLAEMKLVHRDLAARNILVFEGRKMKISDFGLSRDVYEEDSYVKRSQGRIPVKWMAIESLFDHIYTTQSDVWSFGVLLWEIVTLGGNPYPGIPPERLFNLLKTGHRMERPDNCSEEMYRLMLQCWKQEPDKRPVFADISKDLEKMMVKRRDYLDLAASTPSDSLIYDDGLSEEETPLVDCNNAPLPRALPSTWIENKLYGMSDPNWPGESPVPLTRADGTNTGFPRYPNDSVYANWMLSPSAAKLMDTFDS", "outline": "as §1"}, "MET (cMet)": {"molecular_target": "T9, MET (cMet) (Homo sapiens, UniProt P08581)", "T9 construct": "purchased Thermo Fisher Scientific", "T9 sequence (P08581 25-1390)": "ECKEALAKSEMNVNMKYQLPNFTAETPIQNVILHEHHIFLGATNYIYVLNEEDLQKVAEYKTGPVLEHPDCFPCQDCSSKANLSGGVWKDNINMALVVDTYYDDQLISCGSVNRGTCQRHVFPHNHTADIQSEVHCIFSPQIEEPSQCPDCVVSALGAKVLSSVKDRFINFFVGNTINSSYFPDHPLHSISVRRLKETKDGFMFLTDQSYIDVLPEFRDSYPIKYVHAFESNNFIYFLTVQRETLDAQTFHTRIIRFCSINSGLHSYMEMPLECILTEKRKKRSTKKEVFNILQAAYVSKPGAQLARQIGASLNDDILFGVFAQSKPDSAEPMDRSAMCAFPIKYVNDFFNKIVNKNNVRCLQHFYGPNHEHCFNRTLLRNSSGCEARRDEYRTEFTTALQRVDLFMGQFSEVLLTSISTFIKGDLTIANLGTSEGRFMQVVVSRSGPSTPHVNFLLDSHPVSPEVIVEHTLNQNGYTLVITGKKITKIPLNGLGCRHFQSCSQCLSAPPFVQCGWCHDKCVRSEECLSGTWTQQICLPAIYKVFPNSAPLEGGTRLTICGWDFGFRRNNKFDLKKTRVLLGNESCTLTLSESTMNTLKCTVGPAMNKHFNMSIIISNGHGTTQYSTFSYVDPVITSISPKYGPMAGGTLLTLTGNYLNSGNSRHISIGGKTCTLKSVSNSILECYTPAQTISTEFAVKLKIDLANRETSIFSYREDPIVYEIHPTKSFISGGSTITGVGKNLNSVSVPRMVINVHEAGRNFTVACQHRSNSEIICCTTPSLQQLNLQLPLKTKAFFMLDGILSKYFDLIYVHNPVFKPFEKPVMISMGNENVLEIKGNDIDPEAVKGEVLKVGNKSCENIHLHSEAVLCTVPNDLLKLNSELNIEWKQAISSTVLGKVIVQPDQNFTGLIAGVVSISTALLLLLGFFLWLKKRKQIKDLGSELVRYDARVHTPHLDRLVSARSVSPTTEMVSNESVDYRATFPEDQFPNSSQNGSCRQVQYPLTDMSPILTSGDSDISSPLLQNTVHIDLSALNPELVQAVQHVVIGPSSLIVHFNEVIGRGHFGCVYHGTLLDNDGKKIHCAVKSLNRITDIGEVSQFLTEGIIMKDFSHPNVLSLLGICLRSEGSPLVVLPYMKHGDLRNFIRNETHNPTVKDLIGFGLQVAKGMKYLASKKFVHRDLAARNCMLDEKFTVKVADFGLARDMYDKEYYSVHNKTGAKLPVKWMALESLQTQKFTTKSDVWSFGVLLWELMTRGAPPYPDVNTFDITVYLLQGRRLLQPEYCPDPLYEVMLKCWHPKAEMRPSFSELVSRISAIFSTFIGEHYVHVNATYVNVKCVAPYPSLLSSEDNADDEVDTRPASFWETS", "outline": "as §1"}, "EEF2K": {"molecular_target": "T10, EEF2K (Homo sapiens, UniProt O00418)", "T10 construct": "purchased Thermo Fisher Scientific", "outline": "as §1"}},
  "data": [
    {"smiles": "COc1ccc2c(c1OC)c(=O)n1c3ccc(O)cc3c3ccnc2c31", "note": "[MW01, 5-Hydroxy-10,11-dimethoxy-9H-benzo[c]indolo[3,2,1-ij][1,5]naphthyridin-9-one]", "values": [
      {"measurement": "inhibition at 1 µM", "setting": "RPS6KA5 (MSK1)", "value": 5, "unit": "%"},
      {"measurement": "inhibition at 10 µM", "setting": "RPS6KA5 (MSK1)", "value": 25, "unit": "%"},
      {"measurement": "inhibition at 1 µM", "setting": "RPS6KA1 (RSK1)", "value": 12, "unit": "%"},
      {"measurement": "inhibition at 10 µM", "setting": "RPS6KA1 (RSK1)", "value": 19, "unit": "%"},
      {"measurement": "inhibition at 1 µM", "setting": "HIPK1 (Myak)", "value": 21, "unit": "%"},
      {"measurement": "inhibition at 10 µM", "setting": "HIPK1 (Myak)", "value": 47, "unit": "%"},
      {"measurement": "inhibition at 1 µM", "setting": "DAPK3 (ZIPK)", "value": 2, "unit": "%"},
      {"measurement": "inhibition at 10 µM", "setting": "DAPK3 (ZIPK)", "value": 9, "unit": "%"},
      {"measurement": "inhibition at 1 µM", "setting": "CDK5/p25", "value": 4, "unit": "%"},
      {"measurement": "inhibition at 10 µM", "setting": "CDK5/p25", "value": 12, "unit": "%"},
      {"measurement": "inhibition at 1 µM", "setting": "PRKCE (PKC epsilon)", "value": 9, "unit": "%"},
      {"measurement": "inhibition at 10 µM", "setting": "PRKCE (PKC epsilon)", "value": 8, "unit": "%"},
      {"measurement": "inhibition at 1 µM", "setting": "[1]", "value": 2, "unit": "%"},
      {"measurement": "inhibition at 10 µM", "setting": "[1]", "value": 12, "unit": "%"},
      {"measurement": "inhibition at 1 µM", "setting": "RET A883F", "value": 10, "unit": "%"},
      {"measurement": "inhibition at 10 µM", "setting": "RET A883F", "value": 24, "unit": "%"},
      {"measurement": "inhibition at 1 µM", "setting": "MET (cMet)", "value": 14, "unit": "%"},
      {"measurement": "inhibition at 10 µM", "setting": "MET (cMet)", "value": 35, "unit": "%"},
      {"measurement": "inhibition at 1 µM", "setting": "EEF2K", "value": 11, "unit": "%"},
      {"measurement": "inhibition at 10 µM", "setting": "EEF2K", "value": 37, "unit": "%"}
    ]},
    {"smiles": "COc1ccc2cc3c(N)nn(C(=O)c4cccc(N(C)C)c4)c3nc2c1", "note": "[MW05, (3-Amino-7-methoxypyrazolo[3,4-b]quinolin-1-yl)-[3-(dimethylamino)phenyl]methanone]", "values": [
      {"measurement": "inhibition at 1 µM", "setting": "RPS6KA5 (MSK1)", "value": 2, "unit": "%"},
      {"measurement": "inhibition at 10 µM", "setting": "RPS6KA5 (MSK1)", "value": -14, "unit": "%"},
      {"measurement": "inhibition at 1 µM", "setting": "RPS6KA1 (RSK1)", "value": 10, "unit": "%"},
      {"measurement": "inhibition at 10 µM", "setting": "RPS6KA1 (RSK1)", "value": 3, "unit": "%"},
      {"measurement": "inhibition at 1 µM", "setting": "HIPK1 (Myak)", "value": -4, "unit": "%"},
      {"measurement": "inhibition at 10 µM", "setting": "HIPK1 (Myak)", "value": -6, "unit": "%"},
      {"measurement": "inhibition at 1 µM", "setting": "DAPK3 (ZIPK)", "value": 2, "unit": "%"},
      {"measurement": "inhibition at 10 µM", "setting": "DAPK3 (ZIPK)", "value": -3, "unit": "%"},
      {"measurement": "inhibition at 1 µM", "setting": "CDK5/p25", "value": 4, "unit": "%"},
      {"measurement": "inhibition at 10 µM", "setting": "CDK5/p25", "value": 8, "unit": "%"},
      {"measurement": "inhibition at 1 µM", "setting": "PRKCE (PKC epsilon)", "value": 6, "unit": "%"},
      {"measurement": "inhibition at 10 µM", "setting": "PRKCE (PKC epsilon)", "value": -12, "unit": "%"},
      {"measurement": "inhibition at 1 µM", "setting": "[1]", "value": 1, "unit": "%"},
      {"measurement": "inhibition at 10 µM", "setting": "[1]", "value": 2, "unit": "%"},
      {"measurement": "inhibition at 1 µM", "setting": "RET A883F", "value": 7, "unit": "%"},
      {"measurement": "inhibition at 10 µM", "setting": "RET A883F", "value": 3, "unit": "%"},
      {"measurement": "inhibition at 1 µM", "setting": "MET (cMet)", "value": 5, "unit": "%"},
      {"measurement": "inhibition at 10 µM", "setting": "MET (cMet)", "value": -8, "unit": "%"},
      {"measurement": "inhibition at 1 µM", "setting": "EEF2K", "value": 3, "unit": "%"},
      {"measurement": "inhibition at 10 µM", "setting": "EEF2K", "value": 5, "unit": "%"}
    ]}
  ]
}
